In the COVID Moonshot data (paper PMC7615835):
Where “and” joins values, the source holds several entries; their conditions need not be identical. Identical values can stand only once.

Target: SARS-CoV-2 Main Protease (SARS-CoV-2) (UniProt P0DTD1)

Going from Nc1cccc2c(=O)[nH]n(-c3cc(Cl)cc(CC(=O)Nc4cncc5ccccc45)c3)c(=O)c12 to Nc1ccc2c(c1)C(=O)N(c1cc(Cl)cc(CC(=O)Nc3cncc4ccccc34)c1)C2=O, the IC50 falls from 5.92 µM to 1.86 µM (3.2-fold). The second is the more potent here.

O=C(c1cccc(N2CCCNC2=O)c1)N1CCC(C2CCNC2)CC1 (stereo unspecified) and CC(C)N1CCCC(N2CCN(c3ccc4nccnc4n3)CC2)C1=O (stereo unspecified) cannot be ordered by IC50: over 99.5 µM for the first, over 99.5 µM for the second.

First: Cc1nc(C)c(S(=O)(=O)NCC2CCCC3CC23)s1 (stereo unspecified)
Second: Cc1cc(C)nc(NC2CCN(C(=O)CCl)CC2)n1
The IC50 of the first is higher: over 99.5 µM for the first, 27.6 µM for the second. The second is the more potent here.

Going from O=C(Cc1cc(Cl)cc(Nc2n[nH]cc2Br)c1)Nc1cncc2ccccc12 to Cc1nc(Br)ccc1Nc1cc(Cl)cc(CC(=O)Nc2cncc3ccccc23)c1, the IC50 falls from 5.04 µM to 2.82 µM (1.8-fold).

CC1(C(=O)Nc2cncc3cc(S(C)(=O)=O)ccc23)CN(CC2CC2)S(=O)(=O)c2ccc(Cl)cc21 (stereo unspecified) and CN1CC(C)(C(=O)Nc2cncc3cc(S(C)(=O)=O)ccc23)c2cc(Cl)ccc2S1(=O)=O (stereo unspecified) are within 1.5-fold of each other in IC50: 0.615 µM for the first, 0.523 µM for the second.

Compared with O=C(NCCc1cccc(F)c1)C(c1cccnc1)N(C(=O)c1cocn1)c1ccc(Cn2cccn2)cc1 (stereo unspecified), O=C(NCCc1cccc(F)c1)C(c1cccnc1)N(C(=O)c1cocn1)c1ccc2scnc2c1 (stereo unspecified) is 10-fold higher in IC50: 8.34 µM for the first, 84 µM for the second. The first is the more potent here.

Compared with O=C(NCCc1cccc(F)c1)C(c1cccnc1)N(C(=O)c1cocn1)c1ccc(OC2CCOC2)cc1 (stereo unspecified), O=C(NCCc1cccc(F)c1)C(c1cccnc1)N(C(=O)c1cocn1)c1ccc2c(c1)CCOC2 (stereo unspecified) is higher in IC50: 6.32 µM for the first, over 99.5 µM for the second. The first is the more potent here.

First: C=CC(=O)N(c1ccc(C(F)(F)F)cc1)C(C(=O)Nc1c(C)cccc1CC)c1cccnc1 (stereo unspecified)
Second: C=CC(=O)N(c1ccc(C(C)(C)C)cc1)C(C(=O)NCC)c1cccnc1 (stereo unspecified)
The IC50 of the first is 2.1-fold higher: 97.8 µM for the first, 45.5 µM for the second.

CCC(=O)Nc1ccc(N(Cc2ccccc2)C(=O)n2nnc3ccccc32)cc1 and Cc1ccc(C(Cc2ccccc2)C(=O)Nc2nnn3ccccc23)cc1 (stereo unspecified) cannot be ordered by IC50: over 99.5 µM for the first, over 99.5 µM for the second.

Going from CC(C)(C)c1ccc(N(C(=O)c2cnc[nH]2)C(C(=O)NCCc2cccc(F)c2)c2cccnc2)cc1 (stereo unspecified) to CC(C)(C)c1ccc(N(C(=O)c2cnco2)C(C(=O)NCCc2cccc(F)c2)c2cccnc2)cc1 (stereo unspecified), the IC50 rises from 0.292 µM to 4.78 µM (16-fold).

Going from O=C(Cc1cc(Cl)cc(N2CCCCC2)c1)Nc1cncc2ccccc12 to O=C(Cc1cc(Cl)cc(Cl)c1)Nc1cncc2ccccc12, the IC50 falls from over 9.95 µM to 1.37 µM. The second is the more potent here.

O=C(NC(c1ccccc1)c1ccccc1)[C@@H]1CN(C(=O)CCl)CCN1S(=O)(=O)c1ccsc1 (stereo in doubt) and O=C(NC(c1ccccc1)c1ccccc1)[C@H]1CN(C(=O)CCl)CCN1S(=O)(=O)c1ccsc1 (stereo in doubt) are within 1.5-fold of each other in IC50: 0.635 µM for the first, 0.832 µM for the second.

Cc1sc(Nc2cc(Cl)cc(CC(=O)Nc3cncc4ccccc34)c2)nc1-c1ccc(Cl)cc1 and O=C(Cc1cc(Cl)cc(Nc2nnc(-c3ccncc3)s2)c1)Nc1cncc2ccccc12 are within 1.5-fold of each other in IC50: 2.82 µM for the first, 2.19 µM for the second.

First: Cc1ccncc1NC(=O)Cc1cc(C#N)cc(OC2CC(=O)N2)c1 (stereo unspecified)
Second: Cc1ccncc1NC(=O)Cc1cc(Cl)cc(NC2CCC(F)(F)C2O)c1 (stereo unspecified)
The IC50 of the first is 2-fold lower: 11.6 µM for the first, 23 µM for the second.

Going from CCCCOc1ccc(Cl)cc1CC(=O)Nc1cnccc1C to Cc1ccncc1NC(=O)Cc1cc(Cl)cc(-c2ccc(S(C)(=O)=O)cc2Cl)c1, the IC50 rises from 24.8 µM to over 99.5 µM.

First: Cn1c(=O)[nH]c2cncc(NC(=O)C3CCOc4ccc(Cl)cc43)c21 (stereo unspecified)
Second: CS(=O)(=O)c1ccc2c(NC(=O)C3CCOc4ccc(Cl)cc43)cncc2c1 (stereo unspecified)
The IC50 of the first is 48-fold higher: 20.7 µM for the first, 0.427 µM for the second.

Going from N#CC1(CS(=O)(=O)N2Cc3ccc(Cl)cc3[C@@H](C(=O)Nc3cncc4ccccc34)C2)CCS(=O)(=O)CC1 (stereo in doubt) to Cn1ncc2cncc(NC(=O)C3CN(S(=O)(=O)CC4(C#N)CC4)Cc4ccc(Cl)cc43)c21 (stereo unspecified), the IC50 falls from 15.3 µM to 2.53 µM (6-fold). The second is the more potent here.

O=C(Cc1cc(Cl)cc(NCc2ccc(Oc3ccccc3)cc2)c1)Nc1cncc2ccccc12 and O=C(Cc1cc(Cl)cc(Nc2ccc3ccccc3c2O)c1)Nc1cncc2ccccc12 are within 1.5-fold of each other in IC50: 5.82 µM for the first, 4.1 µM for the second.

Going from CN1CCN(c2ccccc2Nc2cc(Cl)cc(CC(=O)Nc3cncc4ccccc34)c2)CC1 to O=C(Cc1cc(Cl)cc(N2CCN(c3ccccc3[N+](=O)[O-])CC2)c1)Nc1cncc2ccccc12, the IC50 rises from 2.09 µM to 4.01 µM (1.9-fold). The first is the more potent here.

O=C(Cc1cc(Cl)cc(Nc2ccc(C(F)(F)F)cc2)c1)Nc1cncc2ccccc12 and O=C(Cc1cc(Cl)cc(Nc2ccc(F)c(Br)c2)c1)Nc1cncc2ccccc12 are within 1.5-fold of each other in IC50: 2.06 µM for the first, 1.97 µM for the second.

First: Cc1nc(-c2cccc(NCc3ccccc3C)c2)n[nH]1
Second: COc1ccccc1OCCNC(=O)c1cc(=O)[nH]c2cccc(C)c12
The IC50 of the first is higher: over 99.5 µM for the first, 10.6 µM for the second.

Compared with CO[C@@H]1COC[C@H]1n1cc(C(=O)N(c2ccc(C(C)(C)C)cc2)C(C(=O)NCCc2cccc(F)c2)c2cccnc2)nn1 (stereo in doubt), CC(C)(C)c1ccc(N(C(=O)c2cn(C3COCC3=O)nn2)C(C(=O)NCCc2cccc(F)c2)c2cccnc2)cc1 (stereo unspecified) is lower in IC50: over 99.5 µM for the first, 19.5 µM for the second.

CN(C)c1ncc(C(C(=O)NCCc2cccc(F)c2)N(C(=O)c2cocn2)c2ccc(C(C)(C)C)cc2)cn1 (stereo unspecified) and Cn1cnc(C(=O)N(c2ccc(C(C)(C)C)cc2)C(C(=O)NCCc2cccc(F)c2)c2cccnc2)cc1=O (stereo unspecified) cannot be ordered by IC50: over 99.5 µM for the first, over 99.5 µM for the second.

Going from O=C(Nc1cc(=O)[nH]c2ccccc12)C1CCOc2ccc(Cl)cc21 (stereo unspecified) to CS(=O)(=O)CCN1CC(C(=O)Nc2cncc3ccccc23)c2cc(Cl)ccc2C1=O (stereo unspecified), the IC50 falls from over 99.5 µM to 0.177 µM.

First: COc1ccccc1OCCNC(=O)c1cc(=O)ccn1C
Second: O=C(Cc1cccc(Cl)c1)NC1COCc2ccccc21 (stereo unspecified)
The IC50 of the first is higher: over 99.5 µM for the first, 69 µM for the second.

Going from O=C(NCCc1cccc(F)c1)C(c1cccnc1)N(Cc1ccccc1)C(=O)c1ccco1 (stereo unspecified) to O=C(NCCc1cccc(F)c1)C(c1cccnc1)N(Cc1ccccc1C1CCC1)C(=O)c1ccco1 (stereo unspecified), the IC50 falls from over 99.5 µM to 1.93 µM.

Going from O=C(Nc1cncc2ccccc12)C(NC[C@@H]1CC[C@H](C(=O)N2CCCC2)O1)c1cccc(Cl)c1 (stereo in doubt) to CC1CN(C(=O)CC2(C(=O)Nc3cncc4ccccc34)CCOc3ccc(Cl)cc32)CCN1CCO (stereo unspecified), the IC50 rises from 2.77 µM to over 99.5 µM. The first is the more potent here.

CC(C)(C)c1ccc(N(C(=O)c2cnc(C3CCOC3)s2)C(C(=O)NCCc2cccc(F)c2)c2cccnc2)cc1 (stereo unspecified) and Cc1nc(C(=O)N(c2ccc(C(C)(C)C)cc2)C(C(=O)NCCc2cccc(F)c2)c2cccnc2)nn1-c1nnc[nH]1 (stereo unspecified) cannot be ordered by IC50: over 99.5 µM for the first, over 99.5 µM for the second.

First: O=C(Cc1cc(Cl)cc(N2CCc3ccccc3[C@H]2c2ccccc2)c1)Nc1cncc2ccccc12 (stereo in doubt)
Second: CCN1CCN(c2ccc(Nc3cc(Cl)cc(CC(=O)Nc4cncc5ccccc45)c3)cc2)CC1
The IC50 of the first is 1.5-fold lower: 2.78 µM for the first, 4.3 µM for the second. The first is the more potent here.

Compared with O=C(Cc1ccc(Cl)c(F)c1)Nc1cncc2ccccc12, O=C(Cc1ccc(C(F)(F)F)cc1)Nc1cncc2ccccc12 is 12-fold higher in IC50: 2.03 µM for the first, 24.8 µM for the second. The first is the more potent here.

O=C(CCl)N1CCCN(S(=O)(=O)Cc2ccccc2)CC1 and CS(=O)(=O)N1CCN(C(=O)CCl)CC1c1ccccc1 (stereo unspecified) are within 1.5-fold of each other in IC50: 8.81 µM for the first, 10.6 µM for the second.

First: CS(=O)(=O)c1ccc2c(NC(=O)C3CN(CC(=O)NC4CC4)C(=O)c4ccc(Cl)cc43)cncc2c1 (stereo unspecified)
Second: COc1ccc2cncc(NC(=O)C3CCNc4cc(Cl)c(Cl)cc43)c2c1 (stereo unspecified)
The IC50 of the first is 1.6-fold higher: 0.214 µM for the first, 0.131 µM for the second. The second is the more potent here.

Going from O=C(Cn1nnc2ccccc21)N(Cc1ccsc1)c1ccc(N2CCOCC2)cc1 to CC(C)(C)c1ccc(N(C(=O)c2cocn2)C(C(=O)NCc2ccncc2)c2cccnc2)cc1 (stereo unspecified), the IC50 rises from 11.6 µM to over 99.5 µM. The first is the more potent here.

COc1cc(Nc2cc(Cl)cc(CC(=O)Nc3cncc4ccccc34)c2)ccc1Br and COc1ccc(Cl)c(Nc2cc(Cl)cc(CC(=O)Nc3cncc4ccccc34)c2)c1 are within 1.5-fold of each other in IC50: 1.89 µM for the first, 1.7 µM for the second.

Cc1ccc(Br)nc1C(=O)NC(C)c1nnc2c(=O)[nH]ccn12 (stereo unspecified) and Cc1cc(C)n2ncc(C(=O)Nc3ccc4ncsc4c3)c2n1 cannot be ordered by IC50: over 99.5 µM for the first, over 99.5 µM for the second.

O=C(Cc1cc(Cl)cc(Nc2ccncc2I)c1)Nc1cncc2ccccc12 and O=C(Cc1cc(Cl)cc(Nc2cc(Cl)cnc2Br)c1)Nc1cncc2ccccc12 are within 1.5-fold of each other in IC50: 1.68 µM for the first, 1.99 µM for the second.

First: CC(=O)NCCc1c[nH]c2c(CN3CCN(C(=O)CCl)CC3)cccc12
Second: O=C(NCCc1cccc(F)c1)C(c1cccnc1)N(C(=O)c1cnc[nH]1)C1CCC2(CCO2)CC1 (stereo unspecified)
The IC50 of the first is lower: 17.4 µM for the first, over 99 µM for the second. The first is the more potent here.

O=C(Cc1cc(Cl)cc(Nc2c(Cl)cc(Cl)cc2Br)c1)Nc1cncc2ccccc12 and O=C(Cc1cc(Cl)cc(Nc2cc(Cl)c(F)cc2F)c1)Nc1cncc2ccccc12 are within 1.5-fold of each other in IC50: 1.63 µM for the first, 1.74 µM for the second.

O=C(Cc1cccc(Cl)c1)Nc1c[nH]c2ccccc12 and CC1(C)Nc2ccccc2C1NC(=O)Cc1cccc(Cl)c1 (stereo unspecified) cannot be ordered by IC50: over 99.5 µM for the first, over 99.5 µM for the second.

First: Cc1ccncc1NC(=O)Cc1cc(Cl)cc(NC2CC2C(F)(F)F)c1 (stereo unspecified)
Second: Cc1cc(Nc2cc(Cl)cc(CC(=O)Nc3cncc4ccccc34)c2)cnc1Br
The IC50 of the first is 13-fold higher: 25.3 µM for the first, 1.95 µM for the second. The second is the more potent here.

Compared with CNC(=O)CN1Cc2ccc(Cl)cc2C2(CCN(c3cncc4ccc(OCCN(C)C)cc34)C2=O)C1 (stereo unspecified), O=C(Cc1cccc(Cl)c1)Nc1cncc2cc(OCC(F)(F)F)ccc12 is higher in IC50: 0.21 µM for the first, over 99.5 µM for the second.

O=C(Cc1cc(Cl)cc(Nc2cc(Cl)nc(Cl)n2)c1)Nc1cncc2ccccc12 and NC(=O)c1ccc(Cl)c(Nc2cc(Cl)cc(CC(=O)Nc3cncc4ccccc34)c2)c1 are within 1.5-fold of each other in IC50: 1.83 µM for the first, 1.79 µM for the second.

Going from CN(Cc1ccccc1Nc1cc(Cl)cc(CC(=O)Nc2cncc3ccccc23)c1)C1CCCCC1 to COc1ncc(Br)cc1Nc1cc(Cl)cc(CC(=O)Nc2cncc3ccccc23)c1, the IC50 falls from 2.22 µM to 0.681 µM (3.3-fold). The second is the more potent here.

Going from COc1ccc2c(c1)c(N)nn2C(=O)Cc1cccc(Cl)c1 to C[C@]1(C(=O)Nc2cncc3ccccc23)CCNc2cc(Cl)c(Cl)cc21 (stereo in doubt), the IC50 falls from over 99.5 µM to 97.7 µM.

Compared with C=CC(=O)NCC(=O)N(Cc1ccccc1)C[C@@]1(O)CN2CCC1CC2 (stereo in doubt), C=CC(=O)N(c1ccc(C(C)(C)C)cc1)C(C(=O)NC(C)(C)C)c1cncc(Cl)c1 (stereo unspecified) is lower in IC50: over 99.5 µM for the first, 65.6 µM for the second.

In the case of COc1cc(OC)cc(-c2nc(-c3c(C)nc4sccn34)no2)c1, the IC50 is reported as over 99.5 µM.

O=C1O[C@]2(CCOc3ccc(Cl)cc32)C(=O)N1c1cncc2ccccc12 (stereo in doubt) was tested, and the IC50 was 80.9 µM and > 9.95 µM.
In the case of COc1ccc2cncc(NC(=O)C3CCOc4cc(F)c(Cl)cc43)c2c1 (stereo unspecified), the IC50 is reported as 0.101 µM and 0.114 µM.
For O=C(CN1Cc2ccc(Cl)cc2C(C(=O)Nc2cncc3ccccc23)C1)NC1CC1 (stereo unspecified), the IC50 was 0.076 µM and 0.099 µM and 0.186 µM.
For CSC1=C(C#N)C2(CCCCC2)C(C#N)=C(NC(=O)CCl)N1, the IC50 was 0.745 µM and 1.75 µM.
For CC(C)(C#N)CS(=O)(=O)N1Cc2ccc(Cl)cc2[C@H](C(=O)Nc2cncc3ccccc23)C1 (stereo in doubt), the IC50 was 0.055 µM and 0.0969 µM and 0.141 µM.
